According to patent US9732087B2, “Diamino-pyridine, pyrimidine, and pyridazine modulators of the histamine H4 receptor” (JANSSEN PHARMACEUTICA NV, priority 2008, dated 2017):
Where a name gives a salt, the structure may show the parent alone.

What follows are molecules tested against human H4 receptor (Homo sapiens (Human), UniProt Q9H3N8) (assay: Binding assay on recombinant human histamine H4 receptor ([3H]histamine competition, SK-N-MC cell membranes)). Conditions: membranes harvested with 96 well Brandel system; [3H]histamine 10 nM; average of results; read-out: Brandel Ki.
Outline: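 Membranes from SK-N-MC cells stably or transiently transfected with human H4 receptor, prepared by homogenization and 30,000 g centrifugation in Tris/EDTA. Bound [3H]histamine separated by rapid filtration on PEI-treated GF/C filters, washed with ice-cold Tris/EDTA, counted by scintillation. '>' values denote highest concentration tested.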

Ki | Compound
42.4 nM | N[C@@H]1CCN(c2ccnc(NC3CCOCC3)n2)C1 [Example 30, 4-[(3R)-3-Aminopyrrolidin-1-yl]-N-(tetrahydro-2H-pyran-4-yl)pyrimidin-2-amine]

Same assay, conditions: membranes harvested with cell harvester; [3H]histamine 10 nM; average of results; read-out: Cell Harvester Ki

Compound | Ki
c1cc(N2C[C@H]3CCN[C@H]3C2)nc(NC2CC2)n1 [Example 143, N-Cyclopropyl-4-[(3aR,6aR)-hexahydropyrrolo[3,4-b]pyrrol-5(1H)-yl]pyrimidin-2-amine] | 267 nM
CSCCNc1nccc(N2CCNCC2)n1 [Example 124, N-[2-(Methylsulfanyl)ethyl]-4-piperazin-1-ylpyrimidin-2-amine] | 155 nM
CN[C@H]1CCN(c2ccnc(NC3CC3)n2)C1 [Example 145, N-Cyclopropyl-4-[(3S)-3-(methylamino)pyrrolidin-1-yl]pyrimidin-2-amine] | 923 nM
CC(C)(CO)CNc1cc(N2CC[C@@H](N)C2)cnn1 [Example 350, 3-({5-[(3R)-3-Aminopyrrolidin-1-yl]pyridazin-3-yl}amino)-2,2-dimethylpropan-1-ol] | 1720 nM
CNC1CCN(c2cnnc(NCc3ccccn3)c2)C1 (stereo in doubt) [Example 402, 5-[(3S)-3-(Methylamino)pyrrolidin-1-yl]-N-(pyridin-2-ylmethyl)pyridazin-3-amine] | > 10000 nM
N[C@@H]1CCN(c2ccnc(NC3CCOCC3)n2)C1 [Example 30, 4-[(3R)-3-Aminopyrrolidin-1-yl]-N-(tetrahydro-2H-pyran-4-yl)pyrimidin-2-amine] | 91.8 nM
CC(C)Nc1cc(N2CC[C@@H](N)C2)ccn1 [Example 13, 4-[(3R)-3-Aminopyrrolidin-1-yl]-N-(1-methylethyl)pyridin-2-amine] | 26.2 nM
c1ccc(CNc2cc(N3CCNCC3)ccn2)cc1 [Example 18, N-Benzyl-4-piperazin-1-ylpyridin-2-amine dihydrochloride] | 527 nM
c1cc(N2C[C@H]3CCN[C@H]3C2)nc(NCC2CCCCC2)n1 [Example 107, N-(Cyclohexylmethyl)-4-[(3aR,6aR)-hexahydropyrrolo[3,4-b]pyrrol-5(1H)-yl]pyrimidin-2-amine] | 69.9 nM
CNC1CN(c2ccnc(NCC3CCCC3)c2)C1 [Example 275, N-(Cyclopentylmethyl)-4-[3-(methylamino)azetidin-1-yl]pyridin-2-amine] | 8.55 nM
CN[C@H]1CCN(c2cnnc(NCC(C)(C)CO)c2)C1 [Example 383, 2,2-Dimethyl-3-({5-[(3S)-3-(methylamino)pyrrolidin-1-yl]pyridazin-3-yl}amino)propan-1-ol] | 596 nM
c1nnc(NC2CCCC2)cc1N1CCNCC1 [Example 354, N-Cyclopentyl-5-piperazin-1-ylpyridazin-3-amine] | 2130 nM
CN1CCN(c2ccnc(NCC3CC3)n2)CC1 [Example 45, N-(Cyclopropylmethyl)-4-(4-methylpiperazin-1-yl)pyrimidin-2-amine] | 7.1 nM
CN1CCN(c2ccnc(NC3C4C[C@H]5C[C@@H](C4)C[C@@H]3C5)c2)CC1 (some centres unmarked) [Example 207, Adamantan-2-yl-[4-(4-methyl-piperazin-1-yl)-pyridin-2-yl]-amine] | 191 nM
CCCCNc1cc(N2CC[C@@H](N)C2)ccn1 [Example 254, 4-[(3R)-3-Aminopyrrolidin-1-yl]-N-butylpyridin-2-amine] | 27.5 nM
N[C@@H]1CCN(c2cnnc(NCCc3ccccc3)c2)C1 [Example 364, 5-[(3R)-3-Aminopyrrolidin-1-yl]-N-(2-phenylethyl)pyridazin-3-amine] | 1740 nM
CN[C@H]1CCN(c2cnnc(NCC3CC4CCC3C4)c2)C1 (stereo partly drawn) [Example 374, N-(Bicyclo[2.2.1]hept-2-ylmethyl)-5-[(3S)-3-(methylamino)pyrrolidin-1-yl]pyridazin-3-amine] | 298 nM
OCCCNc1nccc(N2CC3CCN[C@H]3C2)n1 (stereo in doubt) [Example 159, 3-({4-[(3aR,6aR)-Hexahydropyrrolo[3,4-b]pyrrol-5(1H)-yl]pyrimidin-2-yl}amino)propan-1-ol] | 266 nM
CC(C)Nc1nccc(N2CCNCC2)n1 [Example 67, Isopropyl-(4-piperazin-1-yl-pyrimidin-2-yl)amine] | 275 nM
CN[C@@H]1CCN(c2cnnc(NCc3ccc(OC)cc3)c2)C1 [Example 400, N-(4-Methoxybenzyl)-5-[(3R)-3-(methylamino)pyrrolidin-1-yl]pyridazin-3-amine] | 2150 nM
CNC1CN(c2ccnc(NCCc3ccccc3)c2)C1 [Example 294, 4-[3-(Methylamino)azetidin-1-yl]-N-(2-phenylethyl)pyridin-2-amine] | 103 nM
CN[C@H]1CCN(c2cnnc(NC3CC3)c2)C1 [Example 395, N-Cyclopropyl-5-[(3S)-3-(methylamino)pyrrolidin-1-yl]pyridazin-3-amine] | 1900 nM
CC1C(Nc2cc(N3CCN(C)CC3)ccn2)C[C@H]2C[C@@H]1C2(C)C (stereo partly drawn) [Example 232, 4-(4-Methylpiperazin-1-yl)-N-[(1S,5R)-2,6,6-trimethylbicyclo[3.1.1]hept-3-yl]pyridin-2-amine] | 716 nM
CNC1CN(c2ccnc(NCc3ccc(F)cc3)c2)C1 [Example 295, N-(4-Fluorobenzyl)-4-[3-(methylamino)azeidin-1-yl]pyridin-2-amine] | 163 nM
CN[C@@H]1CCN(c2ccnc(NCC(C)(C)O)c2)C1 [Example 240, 2-Methyl-1-({4-[(3R)-3-(methylamino)pyrrolidin-1-yl]pyridin-2-yl}amino)propan-2-ol] | 54.3 nM
CN[C@@H]1CCN(c2ccnc(NCCOC)c2)C1 [Example 42, N-(2-Methoxyethyl)-4-[(3R)-3-(methylamino)pyrrolidin-1-yl]pyridin-2-amine] | 31.8 nM

The remaining lines, values ahead:

Ki | Compound
33.7 nM | NC1CN(c2ccnc(NCC3CC3)n2)C1 [Example 86, 4-(3-Aminoazetidin-1-yl)-N-(cyclopropylmethyl)pyrimidin-2-amine]
95.3 nM | CNC1CN(c2cnnc(NCC3CC3)c2)C1 [Example 327, N-(Cyclopropylmethyl)-5-[3-(methylamino)azetidin-1-yl]pyridazin-3-amine]
139 nM | CN[C@@H]1CCN(c2cnnc(NCCc3ccccc3)c2)C1 [Example 372, 5-[(3R)-3-(Methylamino)pyrrolidin-1-yl]-N-(2-phenylethyl)pyridazin-3-amine]
116 nM | CN[C@@H]1CCN(c2ccnc(N[C@H](C)c3ccccc3)n2)C1 [Example 180, 4-[(3R)-3-(Methylamino)pyrrolidin-1-yl]-N-[(1R)-1-phenylethyl]pyrimidin-2-amine]
15.9 nM | CNC1CN(c2ccnc(NCCCO)n2)C1 [Example 135, 3-({4-[3-(Methylamino)azetidin-1-yl]pyrimidin-2-yl}amino)propan-1-ol]
1430 nM | CN1CCN(c2ccnc(NCCCO)c2)CC1 [Example 216, 3-{[4-(4-Methylpiperazin-1-yl)pyridin-2-yl]amino}propan-1-ol]
144 nM | CN[C@@H]1CCN(c2ccnc(NCc3ccc(C)cc3)n2)C1 [Example 170, 4-[(3R)-3-(Methylamino)pyrrolidin-1-yl]-N-(4-methylbenzyl)pyrimidin-2-amine]
1.68 nM | CN[C@@H]1CCN(c2ccnc(N[C@H]3C[C@H]4CC[C@]3(C)C4(C)C)n2)C1 [Example 190, 4-[(3R)-3-(Methylamino)pyrrolidin-1-yl]-N-[(1R,2S,4R)-1,7,7-trimethylbicyclo[2.2.1]hept-2-yl]pyrimidin-2-amine]
> 10000 nM | C[C@@H](Nc1cc(N2CCNCC2)cnn1)c1ccccc1 [Example 349, N-[(1R)-1-Phenylethyl]-5-piperazin-1-ylpyridazin-3-amine]
> 10000 nM | COc1ccc(CNc2cc(N3CC[C@@H](N)C3)cnn2)cc1 [Example 341, 5-[(3R)-3-Aminopyrrolidin-1-yl]-N-(4-methoxybenzyl)pyridazin-3-amine]
615 nM | NC1CN(c2ccnc(NCc3ccc(F)cc3)n2)C1 [Example 92, 4-(3-Aminoazetidin-1-yl)-N-(4-fluorobenzyl)pyrimidin-2-amine]
483 nM | C[C@@H]1[C@@H](Nc2nccc(N3CCN(C)CC3)n2)C[C@H]2C[C@@H]1C2(C)C [Example 168, 4-(4-Methylpiperazin-1-yl)-N-[(1S,2S,3S,5R)-2,6,6-trimethylbicyclo[3.1.1]hept-3-yl]pyrimidin-2-amine]
1050 nM | CC1(C)[C@H]2CC[C@H](CNc3nccc(N4C[C@H]5CCN[C@H]5C4)n3)[C@@H]1C2 [Example 104, N-{[(1S,2S,5S)-6,6-Dimethylbicyclo[3.1.1]hept-2-yl]methyl}-4-[(3aR,6aR)-hexahydropyrrolo[3,4-b]pyrrol-5(1H)-yl]pyrimidin-2amine]
478 nM | CNC1CN(c2cnnc(NCC(C)C)c2)C1 [Example 319, 5-[3-(Methylamino)azetidin-1-yl]-N-(2-methylpropyl)pyridazin-3-amine]
36.5 nM | CN[C@@H]1CCN(c2cnnc(NCC3CCCCC3)c2)C1 [Example 391, N-(Cyclohexylmethyl)-5-[(3R)-3-(methylamino)pyrrolidin-1-yl]pyridazin-3-amine]
141 nM | CNC1CN(c2ccnc(NCc3ccccc3)c2)C1 [Example 285, N-Benzyl-4-[3-(methylamino)azetidin-1-yl]pyridin-2-amine]
146 nM | CNC1CN(c2cnnc(NCCCC(F)(F)F)c2)C1 [Example 299, 5-[3-(Methylamino)azetidin-1-yl]-N-(4,4,4-trifluorobutyl)pyridazin-3-amine]
> 10000 nM | NC1CCN(c2cnnc(NCCCO)c2)C1 (stereo in doubt) [Example 338, 3-({5-[(3S)-3-Aminopyrrolidin-1-yl]pyridazin-3-yl}amino)propan-1-ol]
377 nM | C[C@H]1[C@@H](Nc2nccc(N3CCNCC3)n2)C[C@@H]2C[C@H]1C2(C)C (stereo in doubt) [Example 71, (4-Piperazin-1-yl-pyrimidin-2-yl)-(2,6,6-trimethyl-bicyclo[3.1.1]hept-3-yl)-amine]
745 nM | CN1CCN(c2ccnc(NCCc3ccccc3)n2)CC1 [Example 173, 4-(4-Methylpiperazin-1-yl)-N-(2-phenylethyl)pyrimidin-2-amine]
